Laboratory results published in patent US20080269131A1, “Inhibitors of Akt Activity” (SMITHKLINE BEECHAM CORPORATION, priority 2005, published 2008).
≈ marks a conversion by molar mass, not a printed value. Where a name gives a salt, the structure may show the parent alone.

Columns and labels:
[1] = tested on: BT474 (human breast carcinoma); test: Methylene Blue Growth Inhibition assay, BT474; assay type: cell-based; conditions: BT-474, 72 h, BT474, 3 days
Description: (§1) Cellular Assays: Methylene Blue Growth Inhibition assay
(§2) Tumor cell lines used in this assay were BT474 (human breast carcinoma) and LNCaP (lymph node metastasis of prostate cancer). HFF (normal human foreskin fibroblast) was also included. All cell lines were cultured in RPMI 1640 media (Invitrogen Corporation 22400-071) containing 10% Fetal Bovine Serum (FBS) at 37° C. in a humidified 5% CO2 incubator. Cells were harvested using trypsin/EDTA, counted using a hemacytometer and plated in 96-well tissue culture plates (Costar 35-3075), 100 uL per well, at the following densities: BT474 15,000 cells/well, LNCaP 5,000 cells/well and HFF 5,000 cells/well. 10 mM stocks of compounds in DMSO were serially diluted in DMSO through nine 3-fold dilutions in 96-well plates (Costar Corning 3363), and stored at −80 C. The next day, compound dilutions were thawed and 4 uL of each transferred to 662 uL RPMI 1640+100 ug/mL gentamicin, resulting in twice the final required test concentrations. 100 uL of compounds diluted in RPMI 1640 were added to all cell lines. The final concentration of DMSO in all wells, including controls, was 0.3%. Cells were incubated at 37 C, 5% CO2 for 3 days. Medium was removed by aspiration. Cell biomass was estimated by staining cells with 80 uL methylene blue (Sigma M9140, 0.5% in 50:50 ethanol:water), and incubating at room temperature for 1 hour. Stain was aspirated and the plates rinsed by immersion in water, then air-dried. Stain was released from cells by adding 100 uL of solubilizing solution (1% N-lauroyl sarcosine, sodium salt, Sigma L5125, in PBS) and incubating at room temperature for at least 30 minutes. Plates were shaken and the optical density at 620 nm was measured on a microplate reader. Percent inhibition of cell growth was calculated relative to vehicle-treated control wells. Concentration of compound that inhibits 50% of cell growth (IC50) was interpolated using non-linear regression (Levenberg-Marquadt) and the equation, y=Vmax*(1−(x̂n/K̂n+x̂n)))+Y2. [Ref: Mager, M. E. (1972) Data Analysis in Biochemistry and Biophysics. New York: Academic Press]

[2] = tested on: LNCaP (lymph node metastasis of prostate cancer); test: Methylene Blue Growth Inhibition assay, LNCaP; assay type: cell-based; conditions: Homo sapiens, 72 h, 3 days
Description: as §1, §2

[3] = tested on: HFF (normal human foreskin fibroblast); test: Methylene Blue Growth Inhibition assay, HFF; assay type: cell-based; conditions: 72 h, HFF normal cells, 3 days
Description: as §1, §2

[4] = Solubility in 50 mM phosphate buffer at pH 7.4; assay type: physicochemical; conditions: for solubility: 50 mM phosphate buffer, pH 7.4, aqueous buffer; for Solubility (statement in words): suitability for IV dosage forms, solubility in water
[5] = target: FL AKT1 (Homo sapiens, UniProt P31749); test: Full-length AKT enzyme assay (substrate phosphorylation, SPA); assay type: biochemical; conditions: 4 uM ATP
[6] = target: T1, FL AKT2 (Homo sapiens, UniProt P31751); test: as above; assay type: biochemical; conditions: 4 uM ATP
T1 construct: 0.008 uM, FL AKT2 in the above full-length AKT enzyme assay
T1 sequence (P31751 whole entry): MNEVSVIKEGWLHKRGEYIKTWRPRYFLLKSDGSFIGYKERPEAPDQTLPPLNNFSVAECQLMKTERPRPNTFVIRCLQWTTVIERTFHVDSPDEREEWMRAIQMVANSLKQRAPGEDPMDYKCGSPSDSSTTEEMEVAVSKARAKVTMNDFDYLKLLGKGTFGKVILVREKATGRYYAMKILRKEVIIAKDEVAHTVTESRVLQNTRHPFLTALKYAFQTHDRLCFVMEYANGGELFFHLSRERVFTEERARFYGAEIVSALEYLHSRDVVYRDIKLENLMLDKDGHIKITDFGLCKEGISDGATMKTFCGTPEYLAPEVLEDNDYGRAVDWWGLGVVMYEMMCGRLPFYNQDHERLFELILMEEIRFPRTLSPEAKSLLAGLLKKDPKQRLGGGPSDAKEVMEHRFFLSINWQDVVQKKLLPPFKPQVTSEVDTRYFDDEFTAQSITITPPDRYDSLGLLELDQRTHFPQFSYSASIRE

FL AKT1, sequence (P31749 whole entry): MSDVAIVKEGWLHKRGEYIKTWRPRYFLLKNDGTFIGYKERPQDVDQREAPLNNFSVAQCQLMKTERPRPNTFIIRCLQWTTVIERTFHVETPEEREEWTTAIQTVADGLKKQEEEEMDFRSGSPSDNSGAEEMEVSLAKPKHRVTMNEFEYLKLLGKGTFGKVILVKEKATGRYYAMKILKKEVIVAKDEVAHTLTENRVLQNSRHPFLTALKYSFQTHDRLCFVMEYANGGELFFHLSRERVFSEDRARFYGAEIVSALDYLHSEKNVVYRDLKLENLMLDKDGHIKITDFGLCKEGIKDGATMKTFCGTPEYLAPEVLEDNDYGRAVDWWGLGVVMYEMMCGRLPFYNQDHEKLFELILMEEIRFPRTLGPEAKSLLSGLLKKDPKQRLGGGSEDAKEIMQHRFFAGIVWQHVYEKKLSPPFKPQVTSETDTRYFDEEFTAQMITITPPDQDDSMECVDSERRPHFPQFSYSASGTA

SMILES | IC50 [1] | IC50 [2] | solubility [4] | IC50 [5] | IC50 [6] | IC50 [3] | Solubility (statement in words) [4]
CCn1c(-c2nonc2N)nc2c(-c3ccccc3)ncc(OCC(O)CN3CCOCC3)c21 (stereo not shown) [Compound S, 1-{[2-(4-amino-1,2,5-oxadiazol-3-yl)-1-ethyl-4-phenyl-1H-imidazo[4,5-c]pyridin-7-yl]oxy}-3-(4-morpholinyl)-2-propanol trifluoroacetate] | > 30000 nM | 7770 nM |  |  |  | > 30000 nM | 
CCn1c(-c2nonc2N)nc2c(-c3ccccc3)ncc(OCCCN3CCOCC3)c21 [Compound R, 4-(1-ethyl-7-{[3-(4-morpholinyl)propyl]oxy}-4-phenyl-1H-imidazo[4,5-c]pyridin-2-yl)-1,2,5-oxadiazol-3-amine trifluoroacetate] | 17700 nM | 1420 nM |  |  |  | 19900 nM | 
CCn1c(-c2nonc2N)nc2c(-c3ccccc3)ncc(OCCN3CCOCC3)c21 [Compound T, 4-(1-ethyl-7-{[2-(4-morpholinyl)ethyl]oxy}-4-phenyl-1H-imidazo[4,5-c]pyridin-2-yl)-1,2,5-oxadiazol-3-amine trifluoroacetate] | > 30000 nM | > 30000 nM |  |  |  | 18900 nM | 
CCn1c(-c2nonc2N)nc2cncc(OC3CCNCC3)c21.O=C(O)C(F)(F)F [Compound U, 4-[1-ethyl-7-(piperidin-4-yloxy)-1H-imidazo[4,5-c]pyridine-2-yl]-furazan-3-ylamine trifluoroacetate] | 4510 nM |  | 200 µM |  |  | 6470 nM | 
CCn1c(-c2nonc2N)nc2c(-c3ccccc3)ncc(OCC3CCCNC3)c21.O=C(O)C(F)(F)F (stereo not shown) [Compound V, 4-{1-ethyl-4-phenyl-7-[(3-piperidinylmethyl)oxy]-1H-imidazo-[4,5-c]pyridin-2-yl}-1,2,5-oxadiazol-3-amine trifluoroacetate] | 1870 nM | 1640 nM | 9 µM |  |  | 570 nM | 

More lines, main results first:

IC50 [1] | IC50 [2] | solubility [4] | IC50 [5] | IC50 [6] | SMILES | IC50 [3] | Solubility (statement in words) [4]
241 nM | 258 nM | 173 µM |  |  | CCn1c(-c2nonc2N)nc2c(C#CC(C)(C)O)ncc(OCCCN)c21.O=C(O)C(F)(F)F [Compound X, 4-{2-(4-amino-1,2,5-oxadiazol-3-yl)-7-[(3-aminopropyl)oxy]-1-ethyl-1H-imidazo[4,5-c]pyridin-4-yl}-2-methyl-3-butyn-2-ol trifluoroacetate] | 18100 nM | 
2590 nM | 217 nM | 159 µM |  |  | CCn1c(-c2nonc2N)nc2c(C#CC(C)(C)O)ncc(OCC3CCNCC3)c21.O=C(O)C(F)(F)F [Compound Y, 4-{2-(4-amino-1,2,5-oxadiazol-3-yl)-1-ethyl-7-[(4-piperidinylmethyl)oxy]-1H-imidazo[4,5-c]pyridin-4-yl}-2-methyl-3-butyn-2-ol trifluoroacetate] | > 30000 nM | 
255 nM | 65 nM | 200 µM (≈ 87.9 µg/mL) |  |  | CCn1c(-c2nonc2N)nc2c(C#CC(C)(C)O)ncc(OCC[C@@H]3CCCCN3)c21 [Example 2, 4-[2-(4-amino-1,2,5-oxadiazol-3-yl)-1-ethyl-7-({2-[(2S)-2-Piperidinyl]ethyl}oxy)-1H-imidazo[4,5-c]pyridin-4-yl]-2-methyl-3-butyn-2-ol] | 14200 nM | suitable for formulation into dosage forms for IV administration
176 nM | 52 nM | 222 µM (≈ 94.5 µg/mL) | 2 nM | 8 nM | CCn1c(-c2nonc2N)nc2c(C#CC(C)(C)O)ncc(OCC[C@@H]3CCCN3)c21 [Example 1, 4-[2-(4-amino-1,2,5-oxadiazol-3-yl)-1-ethyl-7-({2-[(2S)-2-pyrrolidinyl]ethyl}oxy)-1H-imidazo[4,5-c]pyridin-4-yl]-2-methyl-3-butyn-2-ol] | 12600 nM | suitable for formulation into dosage forms for IV administration
8210 nM | 836 nM | 210 µM |  |  | CCn1c(-c2nonc2N)nc2c(C#CC(C)(C)O)ncc(OCCCCN)c21.O=C(O)C(F)(F)F [Compound W, 4-[7-[(4-aminobutyl)oxy]-2-(4-amino-1,2,5-oxadiazol-3-yl)-1-ethyl-1H-imidazo[4,5-c]pyridin-4-yl}-2-methyl-3-butyn-2-ol trifluoroacetate] | 22100 nM | 
26 nM | 7 nM | 7 µM (≈ 3.2 µg/mL) |  |  | CCn1c(-c2nonc2N)nc2c(C#CC(C)(C)O)ncc(OCCC3CSCCN3)c21 (stereo not shown) [Example 3, 4-(2-(4-amino-1,2,5-oxadiazol-3-yl)-1-ethyl-7-{[2-(3-thiomorpholinyl)ethyl]oxy}-1H-imidazo[4,5-c]pyridin-4-yl)-2-methyl-3-butyn-2-ol] | 3590 nM | suitable for formulation into dosage forms for IV administration
266 nM | 48 nM | 37 µM (≈ 19.2 µg/mL) |  |  | CCn1c(-c2nonc2N)nc2c(C#CC(C)(C)O)ncc(OCCCNCCc3ccc(OC)cc3)c21 [Compound Z, 4-(2-(4-amino-1,2,5-oxadiazol-3-yl)-1-ethyl-7-{[3-({2-[4-(methyloxy)phenyl]ethyl}amino)propyl]oxy}-1H-imidazo[4,5-c]pyridin-4-yl)-2-methyl-3-butyn-2-ol] | 5510 nM | 
